Experimental data reported in the supplement of paper PMC10307832.

What was measured:
Assay in all cases: relative viability (nuclei count vs DMSO), 5 days (fraction); higher = more cells survive
Ruxolitinib + Trametinib = compound: N#CC[C@H](C1CCCC1)n1cc(-c2ncnc3[nH]ccc23)cn1 [Ruxolitinib] + CC(=O)Nc1cccc(-n2c(=O)n(C3CC3)c(=O)c3c(Nc4ccc(I)cc4F)n(C)c(=O)c(C)c32)c1 [Trametinib] (partner 0.02 µM)
Outline: (§1)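 Lung cancer cell lines in 1536-well plates were dosed by pin tool the day after seeding, either with one drug alone or with a fixed anchor-drug dose plus five library-drug doses (not always all listed) in √10 steps. After 5 days, cells were fixed and their nuclei stained in one step (final 0.05% Triton X-100, 1% formaldehyde, 1 ug/ml Hoechst), then counted on 4× images. Relative viability is the nuclei count in treated wells divided by that in vehicle wells. Values are medians of duplicate plates.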

VE-821 + Olaparib = compound: CS(=O)(=O)c1ccc(-c2cnc(N)c(C(=O)Nc3ccccc3)n2)cc1 [VE-821] + O=C(c1cc(Cc2n[nH]c(=O)c3ccccc23)ccc1F)N1CCN(C(=O)C2CC2)CC1 [Olaparib] (partner 8 µM)
Outline: as §1

Vismodegib + Pictilisib = compound: CS(=O)(=O)c1ccc(C(=O)Nc2ccc(Cl)c(-c3ccccn3)c2)c(Cl)c1 [Vismodegib] + CS(=O)(=O)N1CCN(Cc2cc3nc(-c4cccc5[nH]ncc45)nc(N4CCOCC4)c3s2)CC1 [Pictilisib] (partner 1 µM)
Outline: as §1

Vismodegib + Pemetrexed = compound: CS(=O)(=O)c1ccc(C(=O)Nc2ccc(Cl)c(-c3ccccn3)c2)c(Cl)c1 [Vismodegib] + Nc1nc2[nH]cc(CCc3ccc(C(=O)N[C@@H](CCC(=O)O)C(=O)O)cc3)c2c(=O)[nH]1 [Pemetrexed] (partner 0.2 µM)
Outline: as §1

Row | Cell Line | relative viability (Ruxolitinib + Trametinib; first compound 0.08 µM) | relative viability (Ruxolitinib + Trametinib; first compound 0.253 µM) | relative viability (Ruxolitinib + Trametinib; first compound 0.8 µM) | relative viability (Ruxolitinib + Trametinib; first compound 2.53 µM) | relative viability (Ruxolitinib + Trametinib; first compound 8 µM) | relative viability (VE-821 + Olaparib; first compound 0.08 µM) | relative viability (VE-821 + Olaparib; first compound 0.253 µM) | relative viability (VE-821 + Olaparib; first compound 0.8 µM) | relative viability (VE-821 + Olaparib; first compound 2.53 µM) | relative viability (VE-821 + Olaparib; first compound 8 µM) | relative viability (Vismodegib + Pictilisib; first compound 0.08 µM) | relative viability (Vismodegib + Pictilisib; first compound 0.253 µM) | relative viability (Vismodegib + Pictilisib; first compound 0.8 µM) | relative viability (Vismodegib + Pictilisib; first compound 2.53 µM) | relative viability (Vismodegib + Pictilisib; first compound 8 µM) | relative viability (Vismodegib + Pemetrexed; first compound 0.08 µM) | relative viability (Vismodegib + Pemetrexed; first compound 0.253 µM) | relative viability (Vismodegib + Pemetrexed; first compound 0.8 µM) | relative viability (Vismodegib + Pemetrexed; first compound 2.53 µM) | relative viability (Vismodegib + Pemetrexed; first compound 8 µM)
1 | NCI-H661 | 0.661 | 0.619 | 0.685 | 0.432 | 0.52 | 0.766 | 0.801 | 0.671 | 0.708 | 0.687 | 0.3 | 0.392 | 0.403 | 0.331 | 0.367 | 0.915 | 0.854 | 0.887 | 0.876 | 0.941
2 | NCI-H1944 | 0.391 | 0.386 | 0.422 | 0.304 | 0.369 | 0.434 | 0.417 | 0.356 | 0.366 | 0.225 | 0.354 | 0.349 | 0.308 | 0.327 | 0.345 | 0.625 | 0.696 | 0.611 | – | 0.629
3 | NCI-H2228 | 0.229 | 0.861 | 0.62 | 0.24 | 0.144 | 0.506 | 0.625 | 0.641 | 0.534 | 0.222 | 0.493 | 0.538 | 0.359 | 0.413 | 0.347 | 0.342 | 0.401 | 0.291 | 0.316 | 0.333
4 | NCI-H1792 | 0.38 | 0.498 | 0.407 | 0.347 | 0.359 | 0.632 | 0.507 | 0.364 | 0.417 | 0.201 | 0.28 | 0.299 | 0.23 | 0.227 | 0.28 | 0.927 | 0.881 | 0.673 | 0.773 | 0.698
5 | HCC-44 | 1.04 | 0.971 | 0.997 | 0.753 | 1.02 | 0.939 | 0.978 | 0.971 | 0.986 | 0.957 | 0.611 | 0.657 | 0.546 | 0.474 | 0.668 | 0.663 | 0.629 | 0.616 | 0.638 | 0.677
6 | NCI-H358 | 0.144 | 0.12 | 0.138 | 0.0972 | 0.148 | 0.69 | 0.622 | 0.698 | 0.697 | 0.665 | 0.301 | 0.326 | 0.294 | 0.37 | 0.34 | 0.18 | 0.183 | 0.174 | 0.172 | 0.181
7 | NCI-H596 | 0.741 | 0.702 | 0.928 | 0.763 | 0.789 | 0.701 | 0.714 | 0.545 | 0.555 | 0.527 | 0.385 | 0.404 | 0.391 | 0.391 | 0.397 | 0.475 | 0.489 | 0.394 | 0.525 | 0.502
8 | 201T | 0.753 | 0.803 | 0.927 | 0.907 | 0.922 | 0.859 | 0.819 | 0.826 | 0.748 | 0.623 | 0.712 | 0.67 | 0.641 | 0.673 | 0.66 | 0.323 | 0.354 | 0.336 | 0.335 | 0.297
9 | HOP-62 | 0.414 | 0.398 | 0.476 | 0.188 | 0.37 | 0.375 | 0.477 | 0.418 | 0.212 | 0.252 | 0.751 | 0.703 | 0.759 | 0.815 | 0.656 | 0.305 | 0.295 | 0.263 | 0.377 | 0.272
10 | NCI-H1975 | 0.277 | 0.432 | 0.412 | 0.269 | 0.152 | 0.883 | 0.715 | 0.672 | 0.57 | 0.334 | 0.294 | 0.311 | 0.264 | 0.304 | 0.307 | 0.309 | 0.264 | 0.293 | 0.263 | 0.287
11 | NCI-H1755 | 0.803 | 0.777 | 0.796 | 0.549 | 0.694 | 0.928 | 0.859 | 0.854 | 0.893 | 0.719 | 0.43 | 0.406 | 0.471 | 0.448 | 0.449 | 0.441 | 0.417 | 0.365 | 0.426 | 0.432
12 | ChaGo-K-1 | 0.885 | 0.887 | 0.828 | 0.803 | 0.765 | 0.449 | 0.396 | 0.36 | 0.345 | 0.283 | 0.784 | 0.851 | 0.623 | 0.666 | 0.709 | 0.256 | 0.256 | 0.255 | 0.265 | 0.263
13 | NCI-H2023 | 0.57 | 0.524 | 0.654 | 0.4 | 0.565 | 0.576 | 0.4 | 0.222 | 0.169 | 0.0964 | 0.268 | 0.229 | 0.195 | 0.238 | 0.254 | 0.256 | 0.216 | 0.219 | 0.235 | 0.248
14 | EKVX | – | 0.318 | 0.348 | 0.265 | 0.361 | 0.863 | 0.837 | 0.813 | 0.783 | 0.736 | 0.47 | 0.462 | 0.391 | 0.355 | 0.395 | – | 0.334 | 0.359 | 0.402 | 0.387
15 | LCLC-97TM1 | 0.176 | 0.157 | 0.199 | 0.113 | 0.217 | 0.483 | 0.373 | 0.418 | 0.359 | 0.166 | – | – | 0.125 | – | 0.158 | 0.205 | 0.171 | 0.149 | 0.176 | 0.178
16 | NCI-H2085 | 0.639 | 0.548 | 0.624 | 0.483 | 0.575 | 0.774 | 0.747 | 0.844 | – | 0.694 | 0.418 | 0.447 | 0.377 | 0.444 | 0.417 | 0.78 | 0.887 | 0.944 | 0.98 | 0.865
